From patent US6416738B1, “Pretargeting methods and compounds” (NeoRx Corporation, priority 1973, dated 2002)
Ends that are not written are not given here.

How the values were obtained:
HA peptide = details: physiological conditions, concentrations as low as 10^−13 M; cited from earlier work
[1] = biological target: T1, Streptavidin-agarose beads (Streptomyces avidinii, UniProt P22629); test: Streptavidin-agarose bead binding; details: for Pellet: radioactivity bound to streptavidin-agarose beads; for Supernatant: radioactivity not bound to streptavidin-agarose beads
T1 construct: purchased Sigma S-1638
Procedure: 100 μl of 0.2 M sodium carbonate buffer, pH 9.2, was added to 2 mg (in 1.00 ml PBS) of PIP-125-labeled orosomucoid and to 2 mg PIP-125-labeled asialoorosomucoid. 60 μl of a 1.85 mg/ml solution of NHS-amino caproate biotin in DMSO was then added to each compound. The reaction mixtures were vortexed and allowed to sit at room temperature for 45 minutes. The material was purified by size exclusion column chromatography (PD-10, Pharmacia) and eluted with PBS. 1.2 ml fractions were taken, with fractions 4 and 5 containing the majority of the applied radioactivity (>95%). Streptavidin-agarose beads (Sigma S-1638) or -pellets were washed with PBS, and 20 μg of each biotinylated, radiolabeled protein was added to 400 μl of beads and 400 μl of PBS, vortexed for 20 seconds and centrifuged at 14,000 rpm for 5 minutes. The supernatant was removed and the pellets were washed with 400 μl PBS. This wash procedure was repeated twice more, and the combined supernatants were assayed by placing them in a dosimeter versus their respective pellets.

[2] = Blood clearance and limited biodistribution of orosomucoid and asialoorosomucoid; details: for blood level: I-125-labeled protein i.v.
Procedure: The asialoorosomucoid and orosomucoid starting material were radiolabeled with I-125 using PIP technology, as described in Example IV above.
In addition, two animals receiving each compound were sacrificed at 5 minutes post-administration and limited biodistributions were performed.

[3] = system: LS-180 human colon tumor xenografts; test: Three-step pretargeting in LS-180 xenograft model; details: for tumor uptake: antibody at time 0, avidin at 24 h
Text: The experimental protocol was as follows:
The three radiolabels employed in this protocol are capable of detection in the presence of each other. It is also noteworthy that the sizes of the three elements involved are logarithmically different—antibody≅150,000; avidin≅66,000; and biotin≅1,000.

[4] = Excretion of neutral MAMA chelate-biotin conjugate; details: in vivo
Text: Although the net overall charge of the conjugate is neutral, the polycarboxylate nature of the molecule generates regions of hydrophilicity and hydrophobicity. By altering the number and nature of the carboxylate groups within the conjugate, excretion may be shifted from kidney to gastrointestinal routes. For instance, neutral compounds are generally cleared by the kidneys; anionic compounds are generally cleared through the GI system.

[5] = Time dependent cleavage of DOTA-biotin conjugates in serum (% avidin binding); assay type: in vitro ADME
Text: The difference in serum stability between DOTA-LC-biotin and DOTA-SC-biotin might be explained by the fact that the SC derivative contains an aromatic amide linkage in contrast to the aliphatic amide linkage of the LC derivative, with the aliphatic amide linkage being more readily recognized by enzymes as a substrate therefor. This argument cannot apply to biotinidase, however, because biotinidase very efficiently cleaves aromatic amides. In fact, it is recognized that the simplest and most commonly employed biotinidase activity measuring method uses N-(d-biotinyl)-4-aminobenzoate (BPABA) as a substrate, with the hydrolysis of BPABA resulting in the liberation of biotin and 4-aminobenzoate (PABA). See, for example, B. Wolf, et al., “Methods in Enzymology,” pp. 103-111, Academic Press Inc., 1990. Consequently, one would predict that DOTA-SC-biotin, like its LC counterpart, would be a biotinidase substrate. […] A series of DOTA-biotin conjugates was therefore synthesized by the present inventors to determine which structural features conferred serum stability to the conjugates.

LS-180 tumor xenografts [6] = test: Two-step pretargeting with NR-LU-10-avidin and 131I-PIP-biocytin; assay type: in vivo, nude mice; details: 200 μg NR-LU-10-avidin at t=0, 42 μg 131I-PIP-biocytin at t=36 h
Procedure: ^131I-PIP-biocytin was evaluated in a two-step pretargeting procedure in tumor-bearing mice. […] At t=0, the mice were injected with 200 μg of NR-LU-10-avidin conjugate labeled with ^125I using PIP-NHS (see Example IV.A.). At t=36 h, the mice received 42 μg of ^131I-PIP-biocytin. […] The described radiohalogenated biotin compounds are amenable to the same types of modifications described in Example VI above for ^186Re-chelate-biotin conjugates. In particular, the following PIP-polylysine-biotin molecule is made by trace labeling polylysine with ^125I-PIP, followed by extensive biotinylation of the polylysine. [drawing 47]

LS-180 tumor xenografts [7] = test: Tumor uptake of PIP-biocytin after NR-LU-10-streptavidin; assay type: in vivo, nude mice
Procedure: The following data are based on experimentation with tumored nude mice (100 mg LS-180 tumor xenografts implanted subcutaneously 7 days prior to study) that received, at time 0, 200 μg of I-125 labeled NR-LU-10-Streptavidin conjugate (950 pmol), as discussed in Example XI above. At 24 hours, the mice received an i.v. injection of PIP-I-131-biocytin (40 μCi) and an amount of cold carrier PIP-I-127 biocytin corresponding to doses of 42 μg (69,767 pmol), 21 μg (34,884 pmol), 5.7 μg (9468 pmol), 2.85 μg (4734 pmol) or 0.5 μg (830 pmol).

LS-180 tumor = test: Two-step pretargeting in LS-180 animal model
Procedure: and perform biodistributions at 2, 6, 24, 72, 120 hours after injection of radiolabeled biotinyl molecule

T1 sequence (P22629 25-183): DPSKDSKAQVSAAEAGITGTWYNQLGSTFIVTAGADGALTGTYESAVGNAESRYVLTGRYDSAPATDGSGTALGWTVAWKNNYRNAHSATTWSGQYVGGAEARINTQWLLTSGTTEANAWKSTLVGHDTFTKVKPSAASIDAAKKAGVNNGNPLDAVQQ

pGlu-Pto-Pro-Gly-Gly-Ser-Lys-Val-Ile-Leu-Phe (PGGSKVILF; not fully specified (N-terminus); printed as pGlu-Pto-Pro-Gly-Gly-Ser-Lys-Val-Ile-Leu-Phe) [HA peptide]
dissociation of HA dimer into monomers (HA peptide): does not dissociate into monomers

asialoorosomucoid: orosomucoid treated with neuraminidase
Pellet [1]: 8.0% | Supernatant [1]: 92% | uptake in the liver ([2]; 5 minutes post-administration): 86% | blood level ([2]; 5 minutes post-administration): 0.4% | blood clearance ([2]; 5 minutes to 4 hours post-administration): clearing more rapidly than its orosomucoid counterpart

Avidin: avidin (MW≈66 kD), radiolabeled with 131I/PIP-NHS
tumor uptake ([3]; at 25 h): about 250 pmol/g | tumor uptake ([3]; at 32 h): ~150 pmol/g | tumor uptake ([3]; at 48 h): ~50 pmol/g | tumor uptake ([3]; at 120 h): ~0 pmol/g | injected dose cleared from the blood ([3]; mouse, in vivo): greater than 90%

CN(CCSCc1ccccc1)CC(CCC(=O)NCCNC(=O)CC1SCC2NC(=O)NC21)NC(=O)CS (centres unmarked) [neutral MAMA chelate-biotin conjugate]
kidney excretion [4]: superior kidney excretion

orosomucoid: human alpha-1 acid glycoprotein [reference compound]
Pellet [1]: 10% | Supernatant [1]: 90% | blood level ([2]; 5 minutes post-administration): 78%

O=C(CCCCC1SCC2NC(=O)NC21)NCCCC[C@H](NC(=O)c1ccc([125I])cc1)C(=O)O (some centres unmarked) [PIP-Biocytin, p-[I-125]iodobenzoylbiocytin]
% Avidin Binding ([5]; 5 Minutes at 37° C.): 75% | % Avidin Binding ([5]; 15 Minutes at 37° C.): 57% | % Avidin Binding ([5]; 30 Minutes at 37° C.): 31% | 131I-PIP-biocytin molecules per avidin molecule at tumor (LS-180 tumor xenografts [6]): ≈ 1.5 | peak tumor uptake (LS-180 tumor xenografts [7]; 0.5 μg dose, 120 hour time point (96 hours after PIP-biocytin)): 85.0 % ID/G | tumor localization (LS-180 tumor xenografts [7]; three highest doses (42, 21, 5.7 μg), 4 hours after PIP-biocytin injection): about 600 pmol/g | tumor uptake (LS-180 tumor; 40 hour time point, PIP-BT at 37 hours following LU-10-StrAv): above 500 pMOL/G | peak tumor uptake (LS-180 tumor; 45 hours post-LU-10-StrAv administration): about 700 pMOL/G

O=C(O)CN1CCN(CCOO)CCN(CCOO)CCN(CC(=O)O)C(Cc2ccc(NC(=O)CCCCC3SCC4NC(=O)NC43)cc2)C1 (centres unmarked) [Y-90-SC DOTA-Biotin, metal not drawn]
% Avidin Binding ([5]; 20 Hours at 37° C.): 60% | % Avidin Binding ([5]; 60 Minutes at 37° C.): 98% | serum stability ([5]; in comparison to DOTA-LC-biotin): significantly improved serum stability
